Assay results reported in patent US20180238860A1, “INDIVIDUAL METHOD PREDICTIVE OF THE DNA-BREAKING GENOTOXIC EFFECTS OF CHEMICAL OR BIOCHEMICAL AGENTS” (priority 2015, published 2018).

Experiments:
Format in all cases: cell-based, human
01PAU cells [1] = assay: pH2AX foci 24 h after contacting, 01PAU
Description: (§1) In one embodiment, on receipt, the tissue sample (typically the biopsy) is established in the form of an amplifiable cell line without a viral or chemical transformation agent according to an ancillary procedure well known to culture laboratories, as underlined by the publication of Elkind et al. “The radiobiology of cultured mammalian cell”, Gordon and Breach (1967). Once the number of cells is sufficient (typically after 1 to 3 weeks), the first experiments are carried out using the process according to the invention. A cell sample is prepared: The cells are inoculated on glass coverslips in Petri dishes. A portion of these coverslips are contaminated with metals or pesticides or any other DNA-breaking chemical or biochemical agent at different concentrations. A further portion is not contaminated; it represents the spontaneous state. During contamination, the cells remain in the culture incubator at 37° C.
(§2) For the contaminated cells, characteristics are acquired corresponding to the state after an incubation time with the DNA-breaking chemical or biochemical agent. Said characteristics are represented by foci corresponding to the marker pH2AX. The cells on glass coverslips are then fixed, lysed and hybridized. The following procedure, known per se (Bodgi et al, “A single formula to describe radiation-induced protein relocalization: towards a mathematical definition of individual radiosensitivity”, J Theor Biol. 21 p 333:135-45.2013):
the cells are fixed in 3% paraformaldehyde and 2% sucrose for 15 minutes at ambient temperature and permeabilized in 20 mM HEPES buffer solution (4-(2-hydroxyethyl)-1-piperazine ethane sulfonic acid) at pH 7.4, 50 mM NaCl, 3 mM MgCl2, 300 mM sucrose, 0.5% Triton X-100 (a non-ionic surfactant having the formula t-Oct-C6H4-(OCH2CH2)×OH where x=9-10, CAS No. 9002-93-1, supplied for example by Sigma Aldrich) for 3 minutes. The glass coverslips are then washed in phosphate buffer saline (known as the acronym PBS) before immunological staining. The incubation took place for 40 min at 37° C. in PBS supplemented with 2% bovine serum albumin (known as the acronym BSA or fraction V, supplied for example by Sigma Aldrich) and was followed by a wash with PBS. Anti-pH2AX primary antibodies are used at a concentration of 1:800. […]
The results are acquired using these coverslips on an immunofluorescence microscope (Olympus model for example). The reading may be direct (typically by counting the foci on at least 50 cells in G0/G1 for each point) or using dedicated image analysis software, or on an automated microscope; preferably the software or automated microscope methods are calibrated with manual determinations. […]

01PAU cells [2] = assay: Micronuclei per 100 cells 24 h after contacting, 01PAU
Description: as §1
(§3) the cells are fixed in 3% paraformaldehyde and 2% sucrose for 15 minutes at ambient temperature and permeabilized in 20 mM HEPES buffer solution (4-(2-hydroxyethyl)-1-piperazine ethane sulfonic acid) at pH 7.4, 50 mM NaCl, 3 mM MgCl2, 300 mM sucrose, 0.5% Triton X-100 (a non-ionic surfactant having the formula t-Oct-C6H4-(OCH2CH2)×OH where x=9-10, CAS No. 9002-93-1, supplied for example by Sigma Aldrich) for 3 minutes. The glass coverslips are then washed in phosphate buffer saline (known as the acronym PBS) before immunological staining. The incubation took place for 40 min at 37° C. in PBS supplemented with 2% bovine serum albumin (known as the acronym BSA or fraction V, supplied for example by Sigma Aldrich) and was followed by a wash with PBS. Anti-pH2AX primary antibodies are used at a concentration of 1:800. The incubations with anti-mouse FITC or anti-rabbit TRITC secondary antibodies (1:100, supplied by Sigma Aldrich) were performed at 37° C. in 2% BSA for 20 minutes. Glass coverslips were treated with Vectashield™ containing DAPI (4,6-Diamidino-2-phenylindole) to label the nucleus. Staining with DAPI also makes it possible, indirectly, to determine the number of cells in phase G1 (nuclei with homogenous DAPI staining), in phase S (nuclei with numerous pH2AX foci), in phase G2 (nuclei with heterogeneous DAPI staining) and metaphases (visible chromosomes).
(§4) Counterstaining with DAPI (a DNA marker known to those skilled in the art) makes it possible to locate the nucleus to situate the cytoplasmic or nuclear location to quantify the micronuclei, which are complementary cell markers to the data on the foci.
The tables hereinafter summarize the results of numerous experiments which were carried out as described in the “Detailed description” section above. […]

1BR3 (control cells) = assay: pH2AX foci immunofluorescence 24 h after contacting, 1BR3 control fibroblasts; conditions: for pH2AX(24) + 2xSEM / pH2AX(24): 1BR3; for pH2AX(24) + 2xSEM: 24 hours; for pH2AX(24): 24 hours after contacting
Description: as §1, §2, §3
(§5) The results are acquired using these coverslips on an immunofluorescence microscope (Olympus model for example). The reading may be direct (typically by counting the foci on at least 50 cells in G0/G1 for each point) or using dedicated image analysis software, or on an automated microscope; preferably the software or automated microscope methods are calibrated with manual determinations.
(§6) Commercial 1BR3 and 149 BR control fibroblasts were amplified according to the recommendations of the supplier (SIGMA-ALDRICH) until the number of cells sought was obtained. After obtaining a sufficient number of cells (generally after one to 3 weeks), the first experiments were conducted using the process according to the invention. The cells were inoculated on glass coverslips in Petri dishes.
(§7) The acquisition of the results was carried out using these coverslips on an immunofluorescence microscope (Olympus model). The reading was performed directly by counting the foci obtained with the marker pH2AX on at least 50 cells in G0/G1 for each point or using dedicated image analysis software (imageJ). […]

149BR (control cells) = assay: pH2AX foci immunofluorescence 24 h after contacting, 149BR control fibroblasts; conditions: for pH2AX(24) + 2xSEM / pH2AX(24): 149BR; for pH2AX(24) + 2xSEM: 24 hours; for pH2AX(24): 24 hours after contacting
Description: as §1, §2, §3, §5, §6, §7

04PSL cells [3] = assay: pH2AX foci immunofluorescence 24 h after contacting, 04PSL patient skin cell line; conditions: for pH2AX: 24 hours after contacting (Table 3); for pH2AX(24) + 2xSEM: 24 hours; for pH2AX(24 h): 24 hours after contacting (Table 1)
Description: as §3
A skin cell sample from a patient was sampled by biopsy via the “skin punch” method known to those skilled in the art. The cell sample was then placed in DMEM medium+20% sterile fetal calf serum. The cell sample was then transferred without delay to a specialized laboratory, so that the sample remained not more than 38 hours at ambient temperature.
On receipt, the cell sample from the biopsy was established in the form of an amplifiable 04PSL cell line according to a procedure well known to culture laboratories and those skilled in the art: using particularly the trypsin dispersion, the cells are once again diluted in replenished medium and so on until the number of cells sought is obtained. […] The 04PSL line cells were inoculated on glass coverslips in Petri dishes.
The acquisition of the results was carried out using these coverslips on an immunofluorescence microscope (Olympus model). The reading was performed directly by counting the foci obtained with the marker pH2AX on at least 50 cells in G0/G1 for each point or using dedicated image analysis software (imageJ).
In order to obtain results of sufficient statistical reliability to serve as a basis for diagnosis, 3 independent series of experiments were performed.
(§8) In tables 3 and 4, “pH2AX” corresponds to the mean number of nuclear foci obtained with the marker pH2AX, 24 hours after contacting the cell sample with the chemical agent at the concentration C (NpH2AX(24 h, C)), and where “Micronuclei” corresponds to the mean number of micronuclei observed per 100 cells 24 hours after contacting the cell sample with the chemical agent at the concentration C(NMN(24 h, C)).

04PSL cells [4] = assay: Micronuclei per 100 cells (DAPI) 24 h after contacting, 04PSL
Description: as §1, §3, §4
The tables hereinafter summarize the results of numerous experiments which were carried out as described in the “Detailed description” section above.
as §8

SMILES: CC1(C)C(C=C(Cl)Cl)C1C(=O)OCc1cccc(Oc2ccccc2)c1 (stereo not drawn) [Permethrin]
- pH2AX (01PAU cells [1]; 0.3 μM): 0.1 foci
- pH2AX (01PAU cells [1]; 1 μM): 0.2 foci
- pH2AX (01PAU cells [1]; 5 μM): 1.3 foci
- pH2AX (01PAU cells [1]; 10 μM): 1.8 foci
- Micronuclei (01PAU cells [2]; 0.3 μM): 2 per 100 cells
- Micronuclei (01PAU cells [2]; 1 μM): 2 per 100 cells
- Micronuclei (01PAU cells [2]; 5 μM): 4 per 100 cells
- Micronuclei (01PAU cells [2]; 10 μM): 6 per 100 cells

SMILES: O=C(O)CNCP(=O)(O)O [glyphosate]
- pH2AX(24) + 2xSEM (1BR3 (control cells); glyphosate 3 μM): 1.856 foci
- pH2AX(24) (1BR3 (control cells); glyphosate 3 μM): 1.6 foci
- pH2AX(24) + 2xSEM (1BR3 (control cells); glyphosate 10 μM): 1.856 foci
- pH2AX(24) (1BR3 (control cells); glyphosate 10 μM): 1.6 foci
- pH2AX(24) + 2xSEM (1BR3 (control cells); glyphosate 30 μM): 2.204 foci
- pH2AX(24) (1BR3 (control cells); glyphosate 30 μM): 1.9 foci
- pH2AX(24) + 2xSEM (1BR3 (control cells); glyphosate 100 μM): 2.32 foci
- pH2AX(24) (1BR3 (control cells); glyphosate 100 μM): 2 foci
- pH2AX(24) + 2xSEM (1BR3 (control cells); glyphosate 300 μM): 2.668 foci
- pH2AX(24) (1BR3 (control cells); glyphosate 300 μM): 2.3 foci
- reference concentration Cref defined by NpH2AX(24 h, Cref)+2σ=2 (1BR3 (control cells); control cell line 1BR3): 100 µM
- pH2AX(24) + 2xSEM (149BR (control cells); glyphosate 3 μM): 0.928 foci
- pH2AX(24) (149BR (control cells); glyphosate 3 μM): 0.8 foci
- pH2AX(24) + 2xSEM (149BR (control cells); glyphosate 10 μM): 1.16 foci
- pH2AX(24) (149BR (control cells); glyphosate 10 μM): 1 foci
- pH2AX(24) + 2xSEM (149BR (control cells); glyphosate 30 μM): 1.74 foci
- pH2AX(24) (149BR (control cells); glyphosate 30 μM): 1.5 foci
- pH2AX(24) + 2xSEM (149BR (control cells); glyphosate 100 μM): 2.088 foci
- pH2AX(24) (149BR (control cells); glyphosate 100 μM): 1.8 foci
- pH2AX(24) + 2xSEM (149BR (control cells); glyphosate 300 μM): 3.48 foci
- pH2AX(24) (149BR (control cells); glyphosate 300 μM): 3 foci
- reference concentration Cref defined by NpH2AX(24 h, Cref)+2σ=2 (149BR (control cells); control cell line 149BR): 100 µM
- pH2AX (04PSL cells [3]; 3 μM): 1.7 foci
- pH2AX (04PSL cells [3]; 10 μM): 1.9 foci
- pH2AX (04PSL cells [3]; 30 μM): 4.8 foci
- pH2AX (04PSL cells [3]; 100 μM): 6.5 foci
- pH2AX (04PSL cells [3]; 300 μM): 8.7 foci
- pH2AX(24) + 2xSEM (04PSL cells [3]; glyphosate 3 μM): 1.972 foci
- pH2AX(24 h) (04PSL cells [3]; glyphosate 3 μM): 1.7 foci
- pH2AX(24) + 2xSEM (04PSL cells [3]; glyphosate 10 μM): 2.088 foci
- pH2AX(24 h) (04PSL cells [3]; glyphosate 10 μM): 1.8 foci
- pH2AX(24) + 2xSEM (04PSL cells [3]; glyphosate 30 μM): 4.756 foci
- pH2AX(24 h) (04PSL cells [3]; glyphosate 30 μM): 4.1 foci
- pH2AX(24) + 2xSEM (04PSL cells [3]; glyphosate 100 μM): 6.96 foci
- pH2AX(24 h) (04PSL cells [3]; glyphosate 100 μM): 6 foci
- pH2AX(24) + 2xSEM (04PSL cells [3]; glyphosate 300 μM): 9.744 foci
- pH2AX(24 h) (04PSL cells [3]; glyphosate 300 μM): 8.4 foci
- number of pH2AX foci (04PSL cells [3]; glyphosate concentration of 100 μM, 24 h): approximately 7 foci
- Micronuclei (04PSL cells [4]; 3 μM): 6 per 100 cells
- Micronuclei (04PSL cells [4]; 10 μM): 4 per 100 cells
- Micronuclei (04PSL cells [4]; 30 μM): 10 per 100 cells
- Micronuclei (04PSL cells [4]; 150 μM): 12 per 100 cells
- Micronuclei (04PSL cells [4]; 300 μM): 14 per 100 cells
